# Source: ChEMBL document CHEMBL5465560, “Selectivity Literature for EUbOPEN Chemogenomic Library” (2024)
# Assays:
# [1] = target: Cyclin-dependent kinase 2 (Homo sapiens, UniProt P24941); conditions: at 10 µM
# [2] = target: Dual specificity tyrosine-phosphorylation-regulated kinase 1A (Homo sapiens, UniProt Q13627); assay: Selectivity interaction (Kinase panel (Z-LYTE Assay)) EUB0001632a DYRK1A; conditions: at 10 µM
# [3] = tested on: Receptor-type tyrosine-protein kinase FLT3 (Homo sapiens), P36888 [UNDEFINED MUTATION]; assay: Selectivity interaction (KinomeScan (DiscoverX)) EUB0000695a FLT3; conditions: at 100 nM
# [4] = target: Serine/threonine-protein kinase PAK 1 (Homo sapiens) (UniProt Q13153); assay: Selectivity interaction (KinomeScan (DiscoverX)) EUB0000595a PAK1; conditions: at 10 µM
# [5] = tested on: Tyrosine-protein kinase ABL1 (Homo sapiens), P00519 [T315I]; assay: Selectivity interaction (KinomeScan (DiscoverX)) EUB0000229b ABL1; conditions: at 1 µM
# [6] = target: Receptor-type tyrosine-protein kinase FLT3 (Homo sapiens) (UniProt P36888); assay: Selectivity interaction (Upstate Kinase Profiler service (Millipore)) EUB0000056c FLT3; conditions: at 1 µM
# [7] = target: T1, Tyrosine-protein kinase JAK3 (Homo sapiens) (UniProt P52333); assay: Selectivity interaction (ActivX KiNativ screen (ex vivo kinase selectivity in human PBMCs)) EUB0001619a JAK3; type: cell-based; conditions: PBMC, at 1 µM
# T1 sequence (whole entry): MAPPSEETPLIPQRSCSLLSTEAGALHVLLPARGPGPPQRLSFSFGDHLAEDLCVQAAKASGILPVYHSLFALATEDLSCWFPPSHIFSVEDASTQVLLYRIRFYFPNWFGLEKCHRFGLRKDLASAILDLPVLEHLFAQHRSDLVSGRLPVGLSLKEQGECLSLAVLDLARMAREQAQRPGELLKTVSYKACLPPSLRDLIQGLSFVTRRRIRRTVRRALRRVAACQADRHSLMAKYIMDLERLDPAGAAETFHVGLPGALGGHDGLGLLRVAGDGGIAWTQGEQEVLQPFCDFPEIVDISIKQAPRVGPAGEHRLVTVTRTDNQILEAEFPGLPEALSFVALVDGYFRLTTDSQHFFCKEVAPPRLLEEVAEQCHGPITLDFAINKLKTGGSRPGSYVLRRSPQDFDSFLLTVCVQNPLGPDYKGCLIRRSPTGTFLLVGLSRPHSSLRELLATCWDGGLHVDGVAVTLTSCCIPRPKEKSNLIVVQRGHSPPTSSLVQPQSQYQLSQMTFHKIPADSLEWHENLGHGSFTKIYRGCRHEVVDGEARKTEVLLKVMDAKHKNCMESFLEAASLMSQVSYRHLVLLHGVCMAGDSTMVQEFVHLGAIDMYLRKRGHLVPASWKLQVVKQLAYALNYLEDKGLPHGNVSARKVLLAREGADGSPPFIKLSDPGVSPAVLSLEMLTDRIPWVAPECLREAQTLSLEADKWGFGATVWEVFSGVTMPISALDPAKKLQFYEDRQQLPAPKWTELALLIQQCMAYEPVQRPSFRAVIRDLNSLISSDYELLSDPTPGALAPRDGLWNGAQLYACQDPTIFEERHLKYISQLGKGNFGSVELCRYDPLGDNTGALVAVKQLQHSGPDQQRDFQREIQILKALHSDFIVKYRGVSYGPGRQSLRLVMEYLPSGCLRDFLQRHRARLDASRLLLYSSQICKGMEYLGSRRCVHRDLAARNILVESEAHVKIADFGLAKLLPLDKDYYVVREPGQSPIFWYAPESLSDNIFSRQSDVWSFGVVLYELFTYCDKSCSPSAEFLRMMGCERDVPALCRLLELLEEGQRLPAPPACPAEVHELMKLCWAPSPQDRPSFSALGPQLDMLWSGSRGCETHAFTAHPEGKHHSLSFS
# [8] = target: Phosphatidylinositol 4,5-bisphosphate 3-kinase catalytic subunit beta isoform (Homo sapiens) (UniProt P42338); assay: Selectivity interaction (KinomeScan (DiscoverX)) EUB0001619a PIK3CB; conditions: at 1 µM
# [9] = target: T2, Receptor-interacting serine/threonine-protein kinase 4 (Homo sapiens) (UniProt P57078); assay: Selectivity interaction (KinomeScan (DiscoverX)) EUB0001619a RIPK4; conditions: at 1 µM
# T2 sequence (whole entry): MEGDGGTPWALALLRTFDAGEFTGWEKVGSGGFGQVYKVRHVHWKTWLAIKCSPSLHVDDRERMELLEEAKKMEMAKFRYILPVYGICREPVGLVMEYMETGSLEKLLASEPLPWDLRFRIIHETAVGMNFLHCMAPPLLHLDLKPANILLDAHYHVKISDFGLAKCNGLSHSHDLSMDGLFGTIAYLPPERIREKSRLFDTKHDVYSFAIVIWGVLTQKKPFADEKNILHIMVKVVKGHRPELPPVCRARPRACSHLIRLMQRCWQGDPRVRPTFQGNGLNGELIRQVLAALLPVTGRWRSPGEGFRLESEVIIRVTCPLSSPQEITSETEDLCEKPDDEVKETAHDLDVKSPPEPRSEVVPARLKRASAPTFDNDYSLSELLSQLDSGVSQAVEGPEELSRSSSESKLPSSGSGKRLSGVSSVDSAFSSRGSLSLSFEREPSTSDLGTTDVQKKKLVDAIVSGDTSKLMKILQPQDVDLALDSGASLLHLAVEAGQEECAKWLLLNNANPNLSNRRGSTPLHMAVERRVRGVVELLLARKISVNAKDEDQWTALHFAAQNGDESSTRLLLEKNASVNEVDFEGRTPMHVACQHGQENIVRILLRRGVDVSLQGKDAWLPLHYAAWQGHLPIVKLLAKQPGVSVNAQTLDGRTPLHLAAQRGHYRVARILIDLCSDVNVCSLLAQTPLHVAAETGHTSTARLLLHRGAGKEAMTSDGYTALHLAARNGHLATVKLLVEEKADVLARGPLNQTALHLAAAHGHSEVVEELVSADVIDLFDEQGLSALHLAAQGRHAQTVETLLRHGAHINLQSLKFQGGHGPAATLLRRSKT
# [10] = target: T3, Phosphatidylinositol 5-phosphate 4-kinase type-2 gamma (Homo sapiens) (UniProt Q8TBX8); assay: Selectivity interaction (KinomeScan (DiscoverX)) EUB0000666a PIP4K2C; conditions: at 10 µM
# T3 sequence (whole entry): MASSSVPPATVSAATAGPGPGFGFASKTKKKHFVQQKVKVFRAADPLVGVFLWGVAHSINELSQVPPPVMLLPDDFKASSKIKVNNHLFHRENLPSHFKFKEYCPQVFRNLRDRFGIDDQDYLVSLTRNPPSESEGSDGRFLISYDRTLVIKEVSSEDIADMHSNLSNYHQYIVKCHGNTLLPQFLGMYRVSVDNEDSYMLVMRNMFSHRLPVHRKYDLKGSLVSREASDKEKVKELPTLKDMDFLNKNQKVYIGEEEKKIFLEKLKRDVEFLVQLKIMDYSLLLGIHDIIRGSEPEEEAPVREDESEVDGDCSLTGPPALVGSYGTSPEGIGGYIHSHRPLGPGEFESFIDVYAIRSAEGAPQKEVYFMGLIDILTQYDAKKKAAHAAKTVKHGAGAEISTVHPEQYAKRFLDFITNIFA
# Chain of Receptor-type tyrosine-protein kinase FLT3 (Homo sapiens), P36888 [UNDEFINED MUTATION] (P36888 whole entry, looked up, change not shown): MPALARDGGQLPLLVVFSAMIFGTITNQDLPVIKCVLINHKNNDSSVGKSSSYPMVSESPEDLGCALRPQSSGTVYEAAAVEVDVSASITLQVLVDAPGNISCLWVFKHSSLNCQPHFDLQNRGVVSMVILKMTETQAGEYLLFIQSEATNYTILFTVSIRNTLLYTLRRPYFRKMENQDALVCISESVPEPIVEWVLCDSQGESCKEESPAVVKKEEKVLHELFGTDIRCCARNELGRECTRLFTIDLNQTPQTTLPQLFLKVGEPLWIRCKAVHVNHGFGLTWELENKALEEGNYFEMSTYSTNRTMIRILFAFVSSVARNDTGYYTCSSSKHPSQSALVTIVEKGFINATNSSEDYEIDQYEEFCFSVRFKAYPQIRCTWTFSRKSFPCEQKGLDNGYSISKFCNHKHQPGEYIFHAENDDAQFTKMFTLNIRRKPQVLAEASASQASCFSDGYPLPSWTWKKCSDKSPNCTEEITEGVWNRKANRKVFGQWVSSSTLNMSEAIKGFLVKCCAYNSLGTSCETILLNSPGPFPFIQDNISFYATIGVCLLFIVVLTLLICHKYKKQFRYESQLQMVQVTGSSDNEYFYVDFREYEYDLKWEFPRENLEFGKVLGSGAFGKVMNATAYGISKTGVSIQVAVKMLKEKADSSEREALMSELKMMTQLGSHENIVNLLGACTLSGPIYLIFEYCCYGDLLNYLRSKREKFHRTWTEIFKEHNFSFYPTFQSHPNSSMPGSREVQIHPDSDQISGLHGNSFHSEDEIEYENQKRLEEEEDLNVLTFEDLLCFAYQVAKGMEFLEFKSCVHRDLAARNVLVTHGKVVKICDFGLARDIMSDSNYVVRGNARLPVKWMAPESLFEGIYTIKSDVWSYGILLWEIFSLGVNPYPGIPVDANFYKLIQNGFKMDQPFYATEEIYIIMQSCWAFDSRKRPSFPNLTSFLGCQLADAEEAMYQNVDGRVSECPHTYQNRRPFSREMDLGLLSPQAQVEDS
# Chain of Receptor-type tyrosine-protein kinase FLT3 (Homo sapiens) (P36888 whole entry): as the sequence (P36888 whole entry, looked up, change not shown) above
# Chain of Serine/threonine-protein kinase PAK 1 (Homo sapiens) (Q13153 whole entry): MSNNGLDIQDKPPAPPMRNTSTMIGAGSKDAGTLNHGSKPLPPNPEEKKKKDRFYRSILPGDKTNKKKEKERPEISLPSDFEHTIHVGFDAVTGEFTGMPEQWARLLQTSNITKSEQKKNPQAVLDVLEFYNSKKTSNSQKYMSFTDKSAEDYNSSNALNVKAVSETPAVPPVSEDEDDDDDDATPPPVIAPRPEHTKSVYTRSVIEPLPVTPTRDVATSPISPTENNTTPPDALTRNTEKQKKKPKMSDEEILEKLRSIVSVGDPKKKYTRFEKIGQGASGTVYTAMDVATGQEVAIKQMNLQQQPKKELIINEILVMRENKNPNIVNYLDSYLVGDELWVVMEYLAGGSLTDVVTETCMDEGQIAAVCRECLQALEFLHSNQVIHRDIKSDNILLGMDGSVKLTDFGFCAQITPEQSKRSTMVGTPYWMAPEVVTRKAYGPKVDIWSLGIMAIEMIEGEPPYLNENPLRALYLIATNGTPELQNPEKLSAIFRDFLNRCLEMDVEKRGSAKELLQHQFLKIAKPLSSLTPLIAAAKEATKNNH
# Chain of Phosphatidylinositol 4,5-bisphosphate 3-kinase catalytic subunit beta isoform (Homo sapiens) (P42338 whole entry, looked up, canonical isoform): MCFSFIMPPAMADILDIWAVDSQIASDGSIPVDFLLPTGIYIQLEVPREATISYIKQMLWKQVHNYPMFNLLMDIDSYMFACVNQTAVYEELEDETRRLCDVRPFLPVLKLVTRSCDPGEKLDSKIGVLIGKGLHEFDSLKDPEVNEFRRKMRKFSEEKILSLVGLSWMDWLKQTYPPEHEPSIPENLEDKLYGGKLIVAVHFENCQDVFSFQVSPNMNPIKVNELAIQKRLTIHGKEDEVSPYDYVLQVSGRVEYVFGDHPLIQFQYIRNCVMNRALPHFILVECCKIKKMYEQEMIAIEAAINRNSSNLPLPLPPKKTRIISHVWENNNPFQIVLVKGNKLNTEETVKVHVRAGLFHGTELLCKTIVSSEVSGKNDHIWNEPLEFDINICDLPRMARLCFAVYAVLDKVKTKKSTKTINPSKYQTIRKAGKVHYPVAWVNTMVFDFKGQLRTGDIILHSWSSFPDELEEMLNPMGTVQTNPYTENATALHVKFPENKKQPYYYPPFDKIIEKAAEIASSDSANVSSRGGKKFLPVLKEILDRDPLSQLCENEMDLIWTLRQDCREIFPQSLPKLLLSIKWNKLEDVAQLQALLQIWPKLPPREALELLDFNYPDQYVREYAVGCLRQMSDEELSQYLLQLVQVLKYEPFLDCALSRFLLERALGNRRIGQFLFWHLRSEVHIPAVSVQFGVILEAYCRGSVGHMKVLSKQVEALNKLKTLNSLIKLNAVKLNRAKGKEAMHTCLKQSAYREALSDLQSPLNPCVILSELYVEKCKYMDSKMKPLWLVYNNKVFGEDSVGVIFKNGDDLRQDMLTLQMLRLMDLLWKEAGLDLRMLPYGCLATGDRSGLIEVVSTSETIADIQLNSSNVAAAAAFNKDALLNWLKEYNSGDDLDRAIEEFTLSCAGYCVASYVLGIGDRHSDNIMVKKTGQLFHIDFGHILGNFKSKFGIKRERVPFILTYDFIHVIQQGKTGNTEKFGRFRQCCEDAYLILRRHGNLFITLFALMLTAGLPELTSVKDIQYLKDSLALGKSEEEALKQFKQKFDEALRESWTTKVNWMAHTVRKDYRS
structure (smiles),measurement,setting,value
Cc1cc([C@@H](C)Nc2ccccc2C(=O)O)c2nc(N3CCOCC3)cc(=O)n2c1 [AZD-6482],% of control,[1],93%
Cn1cc(-n2cnc3c(NCc4nc5cc(Cl)c(Cl)cc5[nH]4)nc(N4CCOCC4)nc32)cn1,% of control,[2],-3.48%
Cc1cc(F)c(C(=O)Nc2cccc(-c3nncn3C(C)C)n2)cc1-n1cnc(C2CC2)c1,% of control,[3],100%
COCC(=O)NC/C=C/c1ccc2ncnc(Nc3ccc(Oc4ccc(C)nc4)c(C)c3)c2c1 [CP-724714],% of control,[4],81%
COc1cc(N(C)c2ccnc3ccc(C(F)(F)F)cc23)cc(OC)c1OC,% binding,[5],85%
Cc1ccc(-c2ccc3c(ccc4sc5c(c43)NC[C@@H](C)NC5=O)n2)cn1,% of inhibition,[6],-11%
N#Cc1cccc(-c2c[nH]c3ncnc(N4CCOCC4)c23)c1,% of inhibition,[7],6%
same,% of control,[8],100%
same,% of control,[9],57%
O=C(NOC[C@H](O)CO)c1ccc(F)c(F)c1Nc1ccc(I)cc1F,% of control,[10],100%
